According to patent US5789414A, “Pharmaceutical compositions comprising tetrahydropyrimidine derivates” (Yeda Research and Development Co. Ltd., priority 1992, dated 1998):
Numbered stars: 1 amine (or outer) side, 2 acyl side, 3 side chain; on linkers, the order of the positions; unused ones are H or OH. Bridge positions count the residues as written; N and C are the ends. Square brackets hold non-standard residues; d marks the D form. Peptide text beside a SMILES is read from it. I, II: the chains in the order shown. Actinocin(9to1) = Cc1c2oc3c(C)ccc(C(=O)[*:1])c3nc-2c(C(=O)[*:2])c(N)c1=O; NMeV = CN[C@H](C(=O)O)C(C)C; Sar = CNCC(=O)O

How the values were obtained:
[1] = test system: RNA polymerases I, II and III from HeLa cells; assay: In vitro transcription of dCMP-tailed template, summary for the three polymerases; format: biochemical, mammalian; settings: pol I
Description: (§1) The inhibition of RNA polymerase transcription caused by Act D binding to DNA was studied using the system described in Kadesch and Chamberlin, 1982, in which purified RNA polymerases from mammalian cells, such as RNA polymerases I, II and II from HeLa cells, are able to transcribe defined dCMP-tailed DNA templates efficiently and specifically. The dCMP-tailed DNA system allows quantitative studies of transcription reactions by the polymerase protein itself in the absence of other protein factors, and is thus an appropriate system to analyze the direct effect of DNA-binding drugs on the transcription process, and the protective effect of THP(A) and THP(B) on transcription in the presence of Act D.
(§2) Transcription reaction mixtures were incubated in 15 μl of transcription buffer containing 70 mM Tris-HCl (pH 7.9), 0.1M NH4 Cl, 6 mM MgCl2, 5 mM spermidine, 10% glycerol, 0.15 mM dithriothreitol, 0.6 μg of dCMP-tailed template, and 0.5 μl of HeLa RNA polymerase (3u) at 30° C. for 10 min. […] The autoradiogram of the gel was analyzed by molecular dynamics computing densitometer to determine the relative intensities of the bands. […]
(§3) The sensitivity of the three RNA polymerases from HeLa cells to various concentrations of Act D was determined, using the purified polymerases and a dCMP-tailed template of 225 bp for pol I and of 420 bp for pol II and pol III. […]

[2] = test system: HeLa whole cell extract (WCE); assay: In vitro transcription using HeLa whole cell extract (WCE); format: biochemical
Procedure: The DNA was preincubated with THPs (A+B) at increasing concentrations for 20 min at 30° C., actinomycin D was then added at a concentration of 0.4 μg/ml. Following 20 min of incubation, WCE (10 μl) was added for incubation of 20 min at 30° C. Radioactive nucleotide mix was then added for a pulse of 5 min followed by addition of chase mix containing 10 mM CTP. Transcription proceeded for 30 min at 30° C. and was then stopped. […] Lane M--molecular weight markers. Lane C--control reaction without […] or THPs. Lanes of reaction with 0.4 μg/ml actinomycin D are marked (+), lanes of increasing concentrations of THPs (0, 5, 10, 20, 50, 100, 200, 500 μg/ml) are also marked above the lanes.
A 20-μl reaction contained 10 μl WCE, 1 μg DNA, 4 mM creatine phosphate, 500 μM ATP, GTP, UTP, 50 μM CTP, 20 μCi of [α-^32 P]CTP, and transcription was performed at 30° C. All reactions were preincubated 20 min before the addition of the nucleotide mixture; 3 min after the addition of radioactive nucleotides, (pulse), chase mix containing 10 mM unlabelled CTP was added and transcription proceeded for additional 20 min.

[3] = test system: RNA polymerase III from HeLa cells; assay: In vitro transcription of dCMP-tailed template, RNA polymerase III; format: biochemical, mammalian
Description: as §1
(§4) DNA-dependent RNA polymerases I, II and III from HeLa cells (pol I, pol II and pol III, respectively) were purified by a method which is a modification of the procedure described by Hodo and Blatti, 1977.
(§5) The templates DNA were linearized by restriction enzyme Pst I generating a 3' protruding end, and tailed at both ends with dCTP by using terminal transferase (Boehringer Mannheim). Following ethanol precipitation, the dCMP-tailed DNAs were digested with a second restriction enzyme, and the selected tailed fragment was purified from agarose gel as described by Kadesch and Chamberlin, 1982.
as §2, §3

[4] = test system: RNA polymerase II from HeLa cells; assay: In vitro transcription of dCMP-tailed template, RNA polymerase II; format: biochemical, mammalian; settings: for effect of the THP by itself on the transcription reactions: lanes 2, 6, 10
Procedure: FIG. 5 is a radiogram showing the inhibition of RNA polymerase II transcription by Act D and its resumption due to the addition of THP(A) and THP(B). Relative intensities of the bands were determined as in Table 6. The concentration of the DNA was 71.4 μM.
as §1, §4, §5
Transcription reaction mixtures were incubated in 15 μl of transcription buffer containing 70 mM Tris-HCl (pH 7.9), 0.1M NH4 Cl, 6 mM MgCl2, 5 mM spermidine, 10% glycerol, 0.15 mM dithriothreitol, 0.6 μg of dCMP-tailed template, and 0.5 μl of HeLa RNA polymerase (3u) at 30° C. for 10 min. Pulse buffer (3.5 μl) containing 4.3 mM of ATP, GTP and CTP, and 170 μM UTP, 20 μCi of [α-^32 P]UTP was added to the transcription reaction mixture for 20 seconds incubation. Transcription elongation then took place by adding 1.5 μl of chase buffer containing 7 mM UTP in the presence or absence of 0.06 μg Act D. Transcription elongation was carried out for 10 min and was then stopped by addition of proteinase K buffer (0.6% SDS; 25 mM Tris pH 7.9; 25 mM EDTA final concentration) 200 μg/ml proteinase K, and 30 μg of tRNA, and incubated for 25 min at 65° C. The sample was ethanol precipitated, pellet was resuspended in loading buffer (90% formamide; 0.5×Tris borate buffer) and subjected to 6% polyacrylamide--urea gel electrophoresis. The autoradiogram of the gel was analyzed by molecular dynamics computing densitometer to determine the relative intensities of the bands. (Nucleoside triphosphates and tRNA were purchased from Sigma, proteinase K from Boehringer Mannheim, and [α-^32 P]CTP (400 Ci/mmol) from Amersham International, United Kingdom).
The sensitivity of the three RNA polymerases from HeLa cells to various concentrations of Act D was determined, using the purified polymerases and a dCMP-tailed template of 225 bp for pol I and of 420 bp for pol II and pol III. These templates are expected to give runoff transcripts of 225 and 420 nucleotides, respectively, since RNA polymerase initiates transcription at discrete sites at the single-stranded tail double stranded duplex junction. In all experiments a pulse-chase protocol was used.
It was figured that the concentration of the THP(A)+THP(B) required to prevent binding of Act D to DNA would be higher than that of Act D, since they are expected to protect the DNA in general and not necessarily at d(GpC) base pair (bp), whereas the concentration of Act D is related to the d(GpC) content of the DNA. […] Yet when THP(A) and THP(B) were added together in a ratio of 1:1, their effect was dramatic. At a concentration of 200 μM there was a recovery of 75% of transcription in the presence of 2.5 μM Act D, which by itself would have inhibited 97% of the reaction. […]

d(ATGCAT) = assay: 1H NMR titration: equilibrium binding of Act D to d(ATGCAT) in presence and absence of THPs; settings: no THPs
Description: Expanded views of (a) and (a') are shown in spectra (A) and (A'), respectively of FIG. 4(b). The spectra were obtained at pH 7 (as in FIG. 3).
(c) Binding of Act D to d(ATGCAT). The binding of Act D to free oligonucleotide and to the oligonucleotide-THPs complex have been investigated by the ^1 H NMR titration technique.
The equilibrium binding properties of Act D-d(ATGCAT) in the presence and absence of the THPs (Table 4) were derived from the proton peak area ratios of the free hexamer to the bound Act D-hexamer.

[5] = test system: RNA polymerase I from HeLa cells; assay: In vitro transcription of dCMP-tailed template, RNA polymerase I; format: biochemical, mammalian
Description: as §1, with “D. […]” for “D.”
as §2, §3

[6] = test system: gram positive and gram negative bacteria; assay: Antibiotic activity test on bacterial cultures; format: cell-based; settings: several cultures of gram positive and gram negative bacteria
Description: (§6) THP(A) and THP(B) are not toxic to mammals.

[7] = Toxicity on administration to mice; format: in vivo; settings: doses of 1, 10 and 100 mg/100 g body weight
Description: as §6

E. coli = E. coli growth under high salt or in the presence of adriamycin; format: cell-based; settings: conditions which otherwise prevent E. coli growth
enzymes = settings: e.g. against heating, freezing and drying; cited from earlier work
HL60 cells = assay: [3H] thymidine incorporation (DNA synthesis) in HL60 cells; format: cell-based; settings: Homo sapiens, HL-60, read-out: inhibition of [3H] thymidine incorporation
Procedure: FIG. 6 illustrates reversal of adriamycin inhibition of DNA synthesis due to THPs. It depicts a schematic presentation of percent [^3 H] thymidine incorporated versus adriamycin concentration according to the table below the scheme. Empty squares--[^3 H] thymidine incorporation versus adriamycin concentration. Filled squares--[^3 H] thymidine incorporation versus adriamycin concentration in the presence of THPs (100 μg/ml).
HL60 cells were grown in RPMI medium (Gibco) containing 10% fetal calf serum (Biological Laboratories--Bet Haemek) in microwell plates (Nunc). Cells were suspended in medium at a concentration of 2×10^5 cells per ml and dispersed into the wells of the plates in 100 μl aliquots. Following 20 hrs of incubation at 37° C., the cells were treated with THPs (100 μg/ml) and adriamycin at increasing concentrations as indicated in FIG. 6. After 24 hrs [^3 H] thymidine was added (1 μCi/well, […]) for a duration of 3 hrs. Thymidine incorporation was stopped by addition of 25 μl trichloroacetic acid (TCA) at 20%, and the plates were placed at 4° C. overnight. TCA precipitates were washed with 10% TCA (100 μl), solubilized in 100 μl 1N NaOH and transferred to vials for counting in the presence of 3 ml scintillation solution containing toluene:Lumax (Lumac, The Netherlands) (3:2) mix. Assays were performed in triplicates.

[8] = THP 10 μg/ml (66 μM, 60 μM printed for THP(B)), Act D 3 μg/ml [2.5 μM]
[9] = THP 30 μg/ml (200 μM), Act D 3 μg/ml [2.5 μM]
[10] = THP 60 μg/ml (400 μM), Act D 3 μg/ml [2.5 μM]
[11] = THP 60 μg/ml (400 μM), without Act D

In the case of `Cc1c2oc3c(C)ccc(C(=O)N[C@@H]4C(=O)N[C@H](C(C)C)C(=O)N5CCC[C@H]5C(=O)N(C)CC(=O)N(C)[C@@H](C(C)C)C(=O)O[C@@H]4C)c3nc-2c(C(=O)N[C@@H]2C(=O)N[C@H](C(C)C)C(=O)N3CCC[C@H]3C(=O)N(C)CC(=O)N(C)[C@@H](C(C)C)C(=O)O[C@@H]2C)c(N)c1=O` [Act D, Actinomycin D] (I: T[dV]P[Sar][NMeV] / II: T[dV]P[Sar][NMeV]; ester I:1-I:C, II:1-II:C; linker I:N-II:N via Actinocin(9to1)), the residual transcription ([1]; 1 μg/ml Act D added with the chase) is reported as 10-20%, the residual transcription ([1]; Act D 3-5 μg/ml) is reported as 0.1-3% and the “inhibition of the transcription reaction” value ([2]; Act D alone at 0.4 μg/ml) is reported as 80%. The residual transcription ([2]; actinomycin D alone, 0.4 μg/ml) was 20%, the “Percentage of residual transcription” value ([3]; Actinomycin-D 1 μg/ml) was 13% and the “Percentage of residual transcription” value ([3]; Actinomycin-D 3 μg/ml) was 3%. The “Percentage of residual transcription” value ([3]; Actinomycin-D 5 μg/ml) was 0.1%, the inhibition of transcription ([4]; Act D 2.5 μM (3 μg/ml) by itself) was 97% and the “% transcription” value ([4]; Act D 3 μg/ml [2.5 μM], THP 0) was 0.2%. For the same molecule, the “Percentage of residual transcription” value ([4]; Actinomycin-D 1 μg/ml) was 22%, the “Percentage of residual transcription” value ([4]; Actinomycin-D 4 μg/ml) was 3% and the “Percentage of residual transcription” value ([4]; Actinomycin-D 5 μg/ml) was 3%. For the same molecule, the “d(ATGCAT) (free/bound)” value (d(ATGCAT); molar ratio Act D/d(ATGCAT) 0.16) was 4.9, the “d(ATGCAT) (free/bound)” value (d(ATGCAT); molar ratio Act D/d(ATGCAT) 0.32) was 1.7 and the “d(ATGCAT) (free/bound)” value (d(ATGCAT); molar ratio Act D/d(ATGCAT) 0.48) was 0.8. The “d(ATGCAT) (free/bound)” value (d(ATGCAT); molar ratio Act D/d(ATGCAT) 0.64) was 0.4, the “Percentage of residual transcription” value ([5]; Actinomycin-D 1 μg/ml) was 16% and the “Percentage of residual transcription” value ([5]; Actinomycin-D 5 μg/ml) was 3%.

With `CC1=NCC(O)C(C(=O)O)N1` (stereo not drawn) [THP(A), 2-methyl-4-carboxy-5-hydroxy-3,4,5,6-tetrahydropyrimidine] the “% transcription” value [4, 8] was 0.2%, the “% transcription” value [4, 9] was 0.5% and the “% transcription” value [4, 10] was 1.5%. The “% transcription” value [4, 11] was 100%, the “effect of the THP by itself on the transcription reactions” value ([4]; without Act D) was “did not inhibit the transcription reactions” and the antibiotic activity [6] was “do not have antibiotic activity”. For the same molecule, the toxic effects [7] was “no toxic effects”, the “growth of E. coli in the presence of adriamycin” value (E. coli) was “enable efficient growth of E. coli” and the “growth of E. coli under high salt concentrations” value (E. coli) was “enable efficient growth of E. coli”.

With `CC1=NCC[C@@H](C(=O)O)N1` [THP(B), 2-methyl-4-carboxy-3,4,5,6-tetrahydropyrimidine] the “% transcription” value [4, 8] was 1.0%, the “% transcription” value [4, 9] was 2.7% and the “% transcription” value [4, 10] was 5.1%. For the same molecule, the “% transcription” value [4, 11] was 100%, the “effect of the THP by itself on the transcription reactions” value ([4]; without Act D) was “did not inhibit the transcription reactions” and the antibiotic activity [6] was “do not have antibiotic activity”. The “protective effect on enzymes” value (enzymes) was “protective effect on enzymes”.

Work on `COc1cccc2c1C(=O)c1c(O)c3c(c(O)c1C2=O)C[C@@](O)(C(=O)CO)C[C@@H]3O[C@H]1C[C@H](N)[C@H](O)[C@H](C)O1` [adriamycin] yielded an inhibition at 0.01 µg/mL (HL60 cells) of 30% and an inhibition at 0.02 µg/mL (HL60 cells) of 40%.
